Consider 22 compounds from ChEMBL document CHEMBL4334494, “Recent advances in the targeting of human DNA ligase I as a potential new strategy for cancer treatment” (Eur J Med Chem, 2019).

SMILES strings stand for the structures. Bounds are passed on as bounds.

In experiment [1] the target is T1, DNA ligase 1 (Homo sapiens, UniProt P18858). Put plainly: Inhibition of human DNA ligase 1 at 50 uM using 52-mer DNA/25-mer DNA/27-mer DNA as substrate by fluorescence assay relative to control.
The target in experiment [2] is T1, DNA ligase 1. Put plainly: Inhibition of human DNA ligase 1 expressed in Escherichia coli BL21 (DE3) cells using nicked DNA as substrate preincubated for 30 mins followed by substrate addition measured after 1 hr.
The test system of experiment [3] is MDA-MB-231. The experiment in a line: Antiproliferative activity against human MDA-MB-231 cells after 48 hrs by MTT assay. Type of experiment: functional, cell-based. As to conditions: MDA-MB-231, 48 h. For orientation: Tetrazolium assays rely on reduction of a dye to a coloured formazan, in cell work by metabolically active cells.
In experiment [4] the test system is HepG2. Put plainly: Antiproliferative activity against human HepG2 cells after 48 hrs by MTT assay. Type of experiment: functional, cell-based. The following applies: HepG2, 48 h.
Experiment [5] has as its system DLD-1. The experiment in a line: Antiproliferative activity against human DLD1 cells after 48 hrs by MTT assay. Type of experiment: functional, cell-based. The following applies: DLD-1, 48 h.
Experiment [6] concerns HT-29. Put plainly: Antiproliferative activity against human HT-29 cells after 48 hrs by MTT assay. In kind it is functional, cell-based. The following applies: HT-29, 48 h.
Experiment [7] has as its system 4T1. The experiment in a line: Antiproliferative activity against mouse 4T1 cells after 48 hrs by MTT assay. In kind it is functional, cell-based. As to conditions: 4T1, 48 h.
Experiment [8] addresses T1, DNA ligase 1. The experiment in a line: Inhibition of human DNA ligase 1 expressed in Escherichia coli BL21DE3RP cells at 50 uM using 52-mer DNA/25-mer DNA/27-mer DNA as substrate after 30 mins by Cyanin3 dye-based fluorescence assay relative to control.
Experiment [9] relates to HCT-116. Put plainly: Antiproliferative activity against human HCT116 cells after 48 hrs by MTT assay. The following applies: HCT-116, 48 h. In kind it is functional, cell-based.
Experiment [10] deals with HeLa. Put plainly: Antiproliferative activity against human HeLa cells after 48 hrs by MTT assay. Type of experiment: functional, cell-based.
The target of experiment [11] is T1, DNA ligase 1. The experiment in a line: Inhibition of human DNA ligase 1 using 52-mer DNA/25-mer DNA/27-mer DNA as substrate by fluorescence assay.

T1 sequence (P18858 whole entry): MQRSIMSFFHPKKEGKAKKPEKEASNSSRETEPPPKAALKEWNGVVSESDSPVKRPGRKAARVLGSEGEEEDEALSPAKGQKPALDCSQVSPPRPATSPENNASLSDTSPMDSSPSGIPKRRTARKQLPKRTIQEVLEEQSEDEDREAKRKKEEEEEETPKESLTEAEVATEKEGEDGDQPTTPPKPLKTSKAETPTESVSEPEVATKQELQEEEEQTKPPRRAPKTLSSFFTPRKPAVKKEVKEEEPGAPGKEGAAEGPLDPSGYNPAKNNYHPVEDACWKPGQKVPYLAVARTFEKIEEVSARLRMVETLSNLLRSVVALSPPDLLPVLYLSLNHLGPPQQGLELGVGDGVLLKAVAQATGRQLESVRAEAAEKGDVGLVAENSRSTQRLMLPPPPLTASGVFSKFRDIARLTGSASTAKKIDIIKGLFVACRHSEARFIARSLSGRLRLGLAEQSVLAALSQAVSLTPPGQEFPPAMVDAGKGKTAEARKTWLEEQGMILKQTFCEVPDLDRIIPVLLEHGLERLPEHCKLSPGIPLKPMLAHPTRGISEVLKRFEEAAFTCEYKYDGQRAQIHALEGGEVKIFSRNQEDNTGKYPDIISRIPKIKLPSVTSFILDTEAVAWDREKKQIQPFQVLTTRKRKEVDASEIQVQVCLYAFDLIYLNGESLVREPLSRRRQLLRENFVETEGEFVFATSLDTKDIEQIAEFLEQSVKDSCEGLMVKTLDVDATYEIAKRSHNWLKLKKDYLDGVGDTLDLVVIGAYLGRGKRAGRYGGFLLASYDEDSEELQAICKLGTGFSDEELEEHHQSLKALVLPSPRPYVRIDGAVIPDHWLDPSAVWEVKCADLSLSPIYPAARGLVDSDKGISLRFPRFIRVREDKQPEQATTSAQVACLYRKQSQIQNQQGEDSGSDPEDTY

What is called inhibition is the percentage by which the read-out fell short of the control. A high value points to a strong effect. `CC(=O)c1ccc(NC(=O)Nc2ccc3nc(C)cc(NC(=O)c4ccccc4)c3c2)cc1` had an inhibition in [1] of 76.2%.
For orientation: IC50 means the concentration needed to halve the response being measured. For the compound `O=C1/C(=N\Nc2cn[nH]c(=O)c2Cl)c2cc(Cl)ccc2N1c1ccc(Cl)cc1`, the IC50 in experiment [2] turned out to be 14.1 µM.
Same read-out and setting: with `O=C1/C(=N\Nc2cn[nH]c(=O)c2Cl)c2cc(Cl)ccc2N1c1ccc(F)cc1` the figure was 21.1 µM.
In experiment [1], `COC(=O)N1CCN(CC(=O)Nc2cc(C)nc3ccc(NC(=O)Nc4ccc(Br)cc4)cc23)CC1` gave an inhibition of 10.8%.
Still for that read-out and setting: in the case of `COc1ccc(NC(=S)NCC23C=CC(O2)C2C(=O)N(c4ccccc4)C(=O)C23)c([N+](=O)[O-])c1` (stereo not drawn) it was 56.2%.
For the compound `Cc1ccc(/C=C2\CN(C(=S)NC(=O)c3ccccc3)C/C(=C\c3ccc(C)cc3)C2=O)cc1`, the IC50 in experiment [3], in experiment [4], in [5], in experiment [6], in experiment [7] and in [9] was below 10 µM throughout. Also, in experiment [10], the IC50 was below 10 µM. For the same compound, the inhibition in experiment [8] is above 75%.
`CCOC(=O)N1CCN(CC(=O)Nc2cc(C)nc3ccc(NC(=O)Nc4ccc(Cl)cc4)cc23)CC1` returned an inhibition in experiment [1] of 1.5%.
Turning to `C/C=C/C=C1\C=Cc2c(C(=O)OC)coc(=O)c21` [FULVOPLUMIERIN], the IC50 in experiment [11] was 356 µM.
`Cc1ccccc1/C=C1\CN(C(=S)NC(=O)c2ccccc2)C/C(=C\c2ccccc2C)C1=O`: the IC50 in [3], in [4], in experiment [5], in experiment [6], in [7] and in experiment [9] was below 10 µM in each case. The same compound had an IC50 in [10] below 10 µM. The compound further returned an inhibition in [8] above 75%.
Regarding `COc1cc([N+](=O)[O-])ccc1NC(=S)NCC12C=CC(O1)C1C(=O)N(c3c(Cl)cccc3Cl)C(=O)C12` (stereo not drawn), the inhibition in experiment [1] was 75.9%.
With `O=C1/C(=C/c2ccc(F)cc2)CN(C(=S)NC(=O)c2ccccc2)C/C1=C\c1ccc(F)cc1`, the IC50 in [3], in experiment [4], in experiment [5], in experiment [6], in experiment [7] and in experiment [9] was below 10 µM in each case. Moreover, the IC50 in [10] was below 10 µM. The compound further came in with an inhibition in [8] above 75%.
With `Cc1ccc(N2C(=O)/C(=N\Nc3cn[nH]c(=O)c3Cl)c3ccccc32)cc1`, the IC50 in experiment [2] came out at 14.1 µM.
The compound `CCOC(=O)N1CCN(CC(=O)Nc2cc(C)nc3ccc(NC(=O)Nc4ccc(C)c(Cl)c4)cc23)CC1` yielded an inhibition in experiment [1] of 98.6%.
Consider `COc1ccc(N2C(=O)C3C4C=CC(CNC(=S)Nc5ccc(OC)cc5[N+](=O)[O-])(O4)C3C2=O)cc1` (stereo not drawn), for which, in experiment [1], the inhibition worked out at 65%.
In experiment [11], `O=c1c(O)c(-c2ccc(O)cc2O)oc2cc(O)cc(O)c12` [MORIN] gave an IC50 of 225 µM.
In experiment [11], `O=c1c(O)c(-c2cc(O)c(O)c(O)c2)oc2cc(O)cc(O)c12` [MYRICETIN] showed an IC50 of 88 µM.
With `C[n+]1cc2c3c(ccc2c2ccc4cc5c(cc4c21)OCO5)OCO3` [SANGUINARINE NITRATE], the IC50 in experiment [11] is 322 µM.
Turning to `CC1(C)CC[C@]2(C(=O)O)CC=C3[C@]4(C)CC[C@H]5C(C)(C)[C@@H](O)CC[C@]5(C)[C@H]4CC[C@@]3(C)[C@@H]2C1` [ALEURITOLIC ACID], the IC50 in experiment [11] was 208 µM.
In turn, `C[C@H]1[C@H](C)CC[C@]2(C(=O)O)CC[C@]3(C)C(=CC[C@@H]4[C@@]5(C)CC[C@H](O)C(C)(C)[C@@H]5CC[C@]43C)[C@H]12` [URSOLIC ACID] showed an IC50 in [11] of 263 µM.
Consider `CC(=O)c1ccc(NC(=O)Nc2ccc3nc(C)cc(NC(=O)c4ccco4)c3c2)cc1`, for which, in [1], the inhibition came out at 42.4%.
On the same count and under the same terms, with `O=C1NC(=O)/C(=C/c2ccc(OCCCCCOc3cccc(C(=O)/C=C/c4ccc5c(c4)OCO5)c3)cc2)S1` the figure was 99.6%.
Consider `Cc1cc(NC(=O)CN2CCN(C(=O)OC(C)(C)C)CC2)c2cc(NC(=O)Nc3ccc(C)c(Cl)c3)ccc2n1`, for which the inhibition in experiment [1] was 61.1%.
